Results from paper PMC8037310, “Thrombin-Derived Peptides Potentiate the Activity of Gram-Positive-Specific Antibiotics against Gram-Negative Bacteria” (Molecules, 2021).
Where two headings read alike, the source gives them in different places. Peptide text beside a SMILES is read from it.

Key:
E. coli BW25113 [1] = experiment: Checkerboard assay with erythromycin; type: cell-based, Escherichia coli; details: for MSCery: erythromycin concentration in the combination with the synergist giving the lowest FICi, E. coli BW25113; for MIC of the peptide (MICpep): synergist alone, from checkerboard with erythromycin; for MIC of the peptide (MICpep) / MSCpeptide, minimum synergistic concentration: E. coli BW25113, LB, 20 h 37 °C; for MSCpeptide, minimum synergistic concentration: synergist concentration in the combination with erythromycin giving the lowest FICi, OD600
E. coli ATCC25922 = type: cell-based, Escherichia coli; details: for FICi: ATCC25922, 20 h; for MICpeptide: peptide alone; for MICpeptide / MSCpeptide / MSCrif: E. coli ATCC25922; for MSCpeptide: peptide concentration in the combination with rifampicin giving the lowest FICi; for MSCrif: rifampicin concentration in the combination giving the lowest FICi
Summary of the method: (§1)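 Checkerboard of peptide serial dilutions against rifampicin concentrations in triplicate, in LB with 1.0 × 10^6 CFU/mL final inoculum after mixing the 2.0 × 10^6 CFU/mL stock 1:1, 20 h at 37 °C shaking. OD600 read; FICi = MSCa/MICa + MSCb/MICb, ≤0.5 taken as synergy.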

E. coli BW25113 [2] = type: cell-based, Escherichia coli; details: for FICi: BW25113, 20 h; for MICpep: synergist alone, E. coli BW25113, from checkerboard with rifampicin; for MSCpep: synergist concentration in the combination with rifampicin giving the lowest FICi, E. coli BW25113
[3] = tested on: E. coli EQASmcr-1 (EQAS 2016 412016126); type: cell-based, Escherichia coli; details: for FICi: EQASmcr-1 (EQAS 2016 412016126, 20 h); for MICpeptide: peptide alone; for MICpeptide / MSCpeptide / MSCrif: E. coli EQASmcr-1; for MSCpeptide: peptide concentration in the combination with rifampicin giving the lowest FICi; for MSCrif: rifampicin concentration in the combination giving the lowest FICi
[4] = tested on: E. coli EQASmcr-2 (EQAS 2016 KP37); type: cell-based, Escherichia coli; details: for MICpeptide: peptide alone; for MICpeptide / MSCpeptide / MSCrif: E. coli EQASmcr-2; for MSCpeptide: peptide concentration in the combination with rifampicin giving the lowest FICi; for MSCrif: rifampicin concentration in the combination giving the lowest FICi
[5] = tested on: E. coli EQASmcr-3 (EQAS 2017 2013-SQ352); type: cell-based, Escherichia coli; details: for MICpeptide: peptide alone; for MICpeptide / MSCpeptide / MSCrif: E. coli EQASmcr-3; for MSCpeptide: peptide concentration in the combination with rifampicin giving the lowest FICi; for MSCrif: rifampicin concentration in the combination giving the lowest FICi
E. coli W3110 = type: cell-based, Escherichia coli; details: for FICi: W3110, 20 h; for MICpeptide: peptide alone; for MICpeptide / MSCpeptide / MSCrif: E. coli W3110; for MSCpeptide: peptide concentration in the combination with rifampicin giving the lowest FICi; for MSCrif: rifampicin concentration in the combination giving the lowest FICi
E. coli mcr-1 = type: cell-based, Escherichia coli; details: for MICpeptide: peptide alone; for MICpeptide / MSCpeptide / MSCrif: E. coli mcr-1; for MSCpeptide: peptide concentration in the combination with rifampicin giving the lowest FICi; for MSCrif: rifampicin concentration in the combination giving the lowest FICi
Summary of the method: as §1

E. coli BW25113 [6] = experiment: microbe, parasite or virus in culture; type: cell-based, Escherichia coli; details: for FICi: BW25113, 20 h; for MSCnovo: novobiocin concentration in the combination giving the lowest FICi; for MSCnovo / MSCpeptide: E. coli BW25113; for MICpeptide: synergist alone, E. coli BW25113, from checkerboard with novobiocin; for MSCpeptide: synergist concentration in the combination with novobiocin giving the lowest FICi
E. coli BW25113 [7] = experiment: microbe, parasite or virus in culture; type: cell-based, Escherichia coli; details: for MICpeptide: synergist alone, E. coli BW25113, from checkerboard with vancomycin; for MSCpeptide: synergist concentration in the combination with vancomycin giving the lowest FICi; for MSCpeptide / MSCvanco: E. coli BW25113; for MSCvanco: vancomycin concentration in the combination giving the lowest FICi
Protocol: (§2) All peptides were screened for antimicrobial activity against E. coli BW25113, E. coli ATCC25922, and E. coli W3110. A select group of the peptides was further tested against E. coli mcr-1, E. coli EQASmcr-1 (EQAS 2016 412016126), E. coli EQASmcr-2 (EQAS 2016 KP37), E. coli EQASmcr-3 (EQAS 2017 2013-SQ352), K. pneumoniae ATCC13883, P. aeruginosa ATCC27853, and A. baumannii ATCC17978. The antimicrobial assay was performed according to CLSI guidelines. Bacteria were plated out directly from their glycerol stocks on blood agar plates, incubated overnight at 37 °C, and then kept in the fridge. The blood agar plates were only used for 2 weeks and then replaced.
(§3) One colony from a blood agar plates was inoculated in Lysogeny Broth (LB) at 37 °C until a 0.5 optical density at 600 nm (OD600) was reached (compared to the sterility control of LB). The bacterial suspension was diluted in fresh LB to 2.0 × 10^6 CFU/mL. The serial dilutions were prepared in polypropylene microtiter plates: a stock of the test compounds was prepared with a 2x final concentration in LB. Moreover, 100 µL of the stock was added to the wells of the top row of which 50 µL was used for the serial dilution. The bottom row of each plate was used as the positive (50 µL of LB) and negative controls (100 µL of LB) (6 wells each). Furthermore, 50 µL of the 2.0 × 10^6 CFU/mL bacterial stock was added to each well except for the negative controls, adding up to a total volume of 100 µL per well. The plates were sealed with a breathable seal and incubated for 20 h at 37 °C and 600 rpm.
(§4) Two 96-well plates were required per compound. A serial dilution of the compound was performed on two plates from row A–G using with LB as medium. Row H was filled with 25 µL medium. On a separate plate a negative control (8 wells, 100 μL medium) was prepared. For all concentrations of antibiotic a specific stock was prepared. 25 µL medium was added to the 0 µg/mL antibiotic columns (plate I, column 1–3). Of each antibiotic stock 25 µL was added to three columns to obtain triplicates for every condition. Both plates contained 50 µL in each well to which 50 µL bacterial stock was added (see the protocol of the MIC assays) and the plates were sealed. After incubation for 20 h at 37 °C while shaking, the breathable seals were removed and the density of the bacterial suspensions measured at 600 nm (OD600) using a Tecan Spark plate reader. The OD600 values were transformed to a 2D gradient with the negative control as minimum and the positive control (wells G1, G2, and G3) as maximum in excel. The FICi was calculated using Equation (1) with a FICi ≤ 0.5 indicating synergy. FICi = (MSCa/MICa) + (MSCb/MICb),(1)
(§5) Calculation of the FICi: MSCa = concentration of the […] in combination with the antibiotic that results in the lowest FICi. MICa = MIC of the antibiotic without synergist (row G). MSCb = concentration of the synergist in combination with the antibiotic that results in the lowest FICi. MICb = MIC of the synergist itself (Column 1–3, plate I).

K. pneumoniae ATCC13883 = experiment: Checkerboard assay with rifampicin; type: cell-based, Klebsiella pneumoniae; details: K. pneumoniae ATCC13883; for MICpeptide: peptide alone; for MSCpeptide: peptide concentration in the combination with rifampicin giving the lowest FICi; for MSCrif: rifampicin concentration in the combination giving the lowest FICi
Protocol: as §2, §3, §4, §5

P. aeruginosa ATCC27853 = experiment: Checkerboard assay with rifampicin; type: cell-based, Pseudomonas aeruginosa; details: P. aeruginosa ATCC27853; for MICpeptide: peptide alone; for MSCpeptide: peptide concentration in the combination with rifampicin giving the lowest FICi; for MSCrif: rifampicin concentration in the combination giving the lowest FICi
Protocol: as §2, §3, §4, §5

CC[C@H](C)[C@H](NC(=O)[C@@H](NC(=O)[C@H](CCCCN)NC(=O)[C@H](CCC(N)=O)NC(=O)[C@@H](NC(=O)[C@H](C)NC(=O)[C@H](CCCCN)NC(=O)[C@H](CCCCN)NC(=O)[C@H](CC(C)C)NC(=O)[C@H](CCCNC(=N)N)NC(=O)[C@H](Cc1ccccc1)NC(=O)[C@@H](N)C(C)C)[C@@H](C)CC)C(C)C)C(N)=O [peptide 14] (H-VFRLKKAIQKVI-NH2)
MSCery (E. coli BW25113 [1]): 12.5 µg/mL
MIC of the peptide (MICpep) (E. coli BW25113 [1]): > 200 µg/mL
MSCpeptide, minimum synergistic concentration (E. coli BW25113 [1]): 6.25 µg/mL
FICi (E. coli ATCC25922): 0.0313
MICpeptide (E. coli ATCC25922): > 200 µg/mL
MSCpeptide (E. coli ATCC25922): 6.25 µg/mL
MSCrif (E. coli ATCC25922): 0.063 µg/mL
FICi (E. coli BW25113 [2]): 0.1406
MICpep (E. coli BW25113 [2]): > 200 µg/mL
MSCpep (E. coli BW25113 [2]): 50 µg/mL
FICi [3]: 0.0938
MICpeptide [3]: > 200 µg/mL
MSCpeptide [3]: 12.5 µg/mL
MSCrif [3]: 0.5 µg/mL
FICi ([4]; EQASmcr-2 (EQAS 2016 KP37, 20 h)): 0.0938
MICpeptide [4]: > 200 µg/mL
MSCpeptide [4]: 25 µg/mL
MSCrif [4]: 0.25 µg/mL
FICi ([5]; EQASmcr-3 (EQAS 2017 2013-SQ352, 20 h)): 0.0469
MICpeptide [5]: > 200 µg/mL
MSCpeptide [5]: 12.5 µg/mL
MSCrif [5]: 0.125 µg/mL
FICi (E. coli W3110): 0.1875
MICpeptide (E. coli W3110): > 200 µg/mL
MSCpeptide (E. coli W3110): 50 µg/mL
MSCrif (E. coli W3110): 0.5 µg/mL
MICpeptide (E. coli mcr-1): > 200 µg/mL
MSCpeptide (E. coli mcr-1): 25 µg/mL
MSCrif (E. coli mcr-1): 0.75 µg/mL
FICi (E. coli mcr-1; with rifampicin vs E. coli mcr-1): 0.1250
FICi (E. coli BW25113 [6]): 0.0313
MSCnovo (E. coli BW25113 [6]): 6.25 µg/mL
MICpeptide (E. coli BW25113 [6]): > 200 µg/mL
MSCpeptide (E. coli BW25113 [6]): 6.25 µg/mL
FICi (E. coli BW25113 [7]; BW25113, 20 h): 0.2500
MICpeptide (E. coli BW25113 [7]): > 200 µg/mL
MSCpeptide (E. coli BW25113 [7]): 50 µg/mL
MSCvanco (E. coli BW25113 [7]): 50 µg/mL
MICpeptide (K. pneumoniae ATCC13883): > 200 µg/mL
MSCpeptide (K. pneumoniae ATCC13883): 6.25 µg/mL
MSCrif (K. pneumoniae ATCC13883): 0.25 µg/mL
MICpeptide (P. aeruginosa ATCC27853): > 200 µg/mL
MSCpeptide (P. aeruginosa ATCC27853): 50 µg/mL
MSCrif (P. aeruginosa ATCC27853): 0.5 µg/mL

CC[C@H](C)[C@H](NC(=O)[C@H](Cc1c[nH]c2ccccc12)NC(=O)[C@H](CCCCN)NC(=O)[C@H](CCCCN)NC(=O)[C@H](CC(C)C)NC(=O)[C@H](CCCNC(=N)N)NC(=O)[C@H](Cc1ccccc1)NC(=O)[C@@H](N)C(C)C)C(=O)N[C@@H](CCC(N)=O)C(=O)N[C@@H](CCCCN)C(=O)N[C@H](C(=O)N[C@@H](C)C(N)=O)C(C)C [peptide 19] (H-VFRLKKWIQKVA-NH2)
MSCery (E. coli BW25113 [1]): 12.5 µg/mL
MIC of the peptide (MICpep) (E. coli BW25113 [1]): 100 µg/mL
MSCpeptide, minimum synergistic concentration (E. coli BW25113 [1]): 3.125 µg/mL
FICi (E. coli ATCC25922): 0.0313
MICpeptide (E. coli ATCC25922): > 200 µg/mL
MSCpeptide (E. coli ATCC25922): 6.25 µg/mL
MSCrif (E. coli ATCC25922): 0.063 µg/mL
FICi (E. coli BW25113 [2]): 0.0781
MICpep (E. coli BW25113 [2]): 100 µg/mL
MSCpep (E. coli BW25113 [2]): 6.25 µg/mL
FICi [3]: 0.0938
MICpeptide [3]: > 200 µg/mL
MSCpeptide [3]: 12.5 µg/mL
MSCrif [3]: 0.5 µg/mL
MICpeptide [4]: 200 µg/mL
MSCpeptide [4]: 12.5 µg/mL
MSCrif [4]: 0.5 µg/mL
FICi ([4]; with rifampicin vs E. coli EQASmcr-2): 0.1250
MICpeptide [5]: > 200 µg/mL
MSCpeptide [5]: 6.25 µg/mL
MSCrif [5]: 0.125 µg/mL
FICi (E. coli W3110): 0.0782
MICpeptide (E. coli W3110): 100 µg/mL
MSCpeptide (E. coli W3110): 3.125 µg/mL
MSCrif (E. coli W3110): 0.5 µg/mL
MICpeptide (E. coli mcr-1): > 200 µg/mL
MSCpeptide (E. coli mcr-1): 25 µg/mL
MSCrif (E. coli mcr-1): 0.75 µg/mL
FICi (E. coli BW25113 [6]): 0.0390
MSCnovo (E. coli BW25113 [6]): 3.125 µg/mL
MICpeptide (E. coli BW25113 [6]): 200 µg/mL
MSCpeptide (E. coli BW25113 [6]): 6.25 µg/mL
MICpeptide (E. coli BW25113 [7]): 200 µg/mL
MSCpeptide (E. coli BW25113 [7]): 12.5 µg/mL
MSCvanco (E. coli BW25113 [7]): 6.25 µg/mL
MICpeptide (K. pneumoniae ATCC13883): > 200 µg/mL
MSCpeptide (K. pneumoniae ATCC13883): 6.25 µg/mL
MSCrif (K. pneumoniae ATCC13883): 0.25 µg/mL
MICpeptide (P. aeruginosa ATCC27853): 100 µg/mL
MSCpeptide (P. aeruginosa ATCC27853): 25 µg/mL
MSCrif (P. aeruginosa ATCC27853): 0.25 µg/mL
